Results on two molecules are retold here after paper PMC5130624 (International journal for parasitology, 2016).

A word on the IC50: it is the point on the concentration scale where inhibition reaches its midpoint. Broadly, the EC50 is the concentration at which the effect is half-maximal.

Series [1] concerns SnCDPK1 in S. neurona cell lysate. Briefly: Cell lysate thermal shift assay. The class given is binding, Sarcocystis neurona. To be noted: BKI 2 µM, 0.5% DMSO, Tm (compound)-Tm (DMSO).
Series [2] deals with recombinant SnCDPK1. Put plainly: SnCDPK1 kinase activity assay. The class given is biochemical, Sarcocystis neurona. The note with it: read-out: SnCDPK1 enzyme IC50; inhibition of phosphorylation activity.
The subject of series [3] is S. neurona strain F9F merozoites. Put plainly: S. neurona parasite growth assay in bovine turbinate cells. The class given is cell-based, Sarcocystis neurona.
Series [4] deals with TgCDPK1. The note with it: read-out: TgCDPK1 enzyme IC50; ref Johnson et al., 2012; cited from earlier work.
Series [5] concerns hERG. To be noted: cited from earlier work.
A short description of series [6]: Oral pharmacokinetics in newborn calves. The note with it: unpublished data.
Series [7] relates to recombinant SnCDPK1. Briefly: Recombinant SnCDPK1 thermal shift assay. The class given is binding, Sarcocystis neurona. To be noted: 20 µM BKI, 5% DMSO; change in Tm vs DMSO control.
The target of series [8] is T1, recombinant TgCDPK1 (Toxoplasma gondii, UniProt Q9BJF5).
T1 sequence (Q9BJF5 1-507): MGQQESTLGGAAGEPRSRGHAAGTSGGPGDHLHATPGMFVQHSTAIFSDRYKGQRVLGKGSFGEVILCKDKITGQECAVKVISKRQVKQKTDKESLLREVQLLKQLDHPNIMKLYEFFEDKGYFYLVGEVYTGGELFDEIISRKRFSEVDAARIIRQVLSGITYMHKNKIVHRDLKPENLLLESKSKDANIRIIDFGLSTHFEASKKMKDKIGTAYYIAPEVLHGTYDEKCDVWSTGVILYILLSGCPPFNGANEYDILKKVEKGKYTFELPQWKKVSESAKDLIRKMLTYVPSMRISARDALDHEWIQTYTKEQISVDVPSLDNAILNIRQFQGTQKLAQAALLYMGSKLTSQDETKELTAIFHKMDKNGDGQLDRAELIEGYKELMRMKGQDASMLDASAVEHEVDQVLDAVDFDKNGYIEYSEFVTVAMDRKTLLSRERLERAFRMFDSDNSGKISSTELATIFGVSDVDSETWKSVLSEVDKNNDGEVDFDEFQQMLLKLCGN
Briefly: Recombinant TgCDPK1 thermal shift assay. The format is binding. To be noted: 20 µM BKI, 5% DMSO; change in Tm vs DMSO control.

For series [9] the following is noted: bovine, in vivo.

Like-named read-outs stand apart in the source and are kept apart here.

On to `CCOc1ccc2cc(-c3nn(CC4CCN(C)CC4)c4ncnc(N)c34)ccc2c1` [compound 1294], for which the “S. neurona cell CDPK1 Thermal Stability (°C)” value in [1] came out at 2.7 °C. The IC50 in series [2] was below 10 nM; in series [4], […]. The half-maximal effective concentration (EC50) in series [3] (Sarcocystis neurona, in Bos taurus, 96 h, read-out: S. neurona cell growth EC50) is 68 nM. In addition, in [3] (added at parasite inoculation (0 h) versus 2 h p.i., 4 days), the “Effect of time of addition on growth inhibition” value is given as “more effective if added at the time of infection rather than 2 h later”. Also, the hERG inhibition result in series [5] (ref Ojo et al., 2014a) was “has recently been shown to have hERG inhibition”. Also, the Oral pharmacokinetics result in series [6] is recorded as “outstanding oral pharmacokinetics”.

As to `CCOc1ccc2cc(-c3nn(C(C)(C)C)c(N)c3C(N)=O)cnc2c1` [compound 1517], in series [7], the “Recombinant SnCDPK1 Thermal Shift (°C) at 20 µM” value is 9.6 °C. In series [8], the “Recombinant TgCDPK1 Thermal Shift (°C) at 20 µM” value turned out to be 10.5 °C. Besides, in series [1], the “S. neurona cell CDPK1 Thermal Stability (°C)” value came to 8.0 °C. For the same molecule, in series [2], the IC50 is below 10 nM. The Oral pharmacokinetics entry in series [9] was “outstanding oral pharmacokinetics”. For the same molecule, in [5] (ref Vidadala et al., 2016), the hERG inhibition result is given as “lack of hERG inhibition”.
